The structures appear in SMILES notation.

In one assay the target is T1, olfactory receptor OR5K1 (Homo sapiens, UniProt Q8NHB7).
T1 construct: expressed in transfected cells; host or cells: HEK293
T1 sequence (Q8NHB7 1-308): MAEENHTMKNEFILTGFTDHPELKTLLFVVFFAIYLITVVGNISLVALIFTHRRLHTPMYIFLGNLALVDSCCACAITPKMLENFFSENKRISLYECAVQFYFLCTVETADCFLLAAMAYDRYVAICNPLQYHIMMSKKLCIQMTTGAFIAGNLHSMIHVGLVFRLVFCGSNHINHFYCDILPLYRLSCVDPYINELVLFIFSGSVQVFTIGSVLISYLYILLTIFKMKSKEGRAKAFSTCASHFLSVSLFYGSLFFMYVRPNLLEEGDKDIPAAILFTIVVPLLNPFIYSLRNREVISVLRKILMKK
Kind of assay: Luciferase reporter gene assay: response of olfactory receptor to pyrazine derivatives. The format is cell-based. As to conditions: 0, 3, 10, 30, 100, 300 and 1000 μM; HEK293 cells expressing OR5K1 with RTP1S variant; FIG. 2. As to the method: HEK293 cells expressing 373 types of human olfactory receptors were produced. A reaction solution having a composition shown in Table 1 was prepared and left to stand in a clean bench for 15 min and then was dispensed in each well of a 96-well plate (Becton, Dickinson and Company). Subsequently, HEK293 cells (100 μL, 3×10^5 cells/cm^2) were seeded in each well and cultured in an incubator at 37° C. and 5% CO2 for 24 hr.
An olfactory receptor expressed in HEK293 cells couples with endogenous Gas in the cells to activate adenylate cyclase and thereby increases the amount of intracellular cAMP. In this study, the response of a pyrazine derivative was measured by luciferase reporter gene assay which monitors an increase in the amount of intracellular cAMP as the luminescence value derived from a firefly luciferase gene (fluc2P-CRE-hygro). A Renilla luciferase gene was fused downstream of a CMV promoter (hRluc-CMV) and was also introduced to HEK293 cells as an internal standard to correct errors in transgenic efficiency and number of cells.
The culture medium was removed from the culture produced in the above 3), and 75 μL of a solution prepared with a CD293 medium (Invitrogen Inc.) so as to contain a pyrazine derivative (1 mM 2,6-dimethylpyrazine) was added thereto. The cells were cultured in a CO2 incubator for 2.5 hr to sufficiently express the luciferase gene in the cells. The luciferase activity was measured with a Dual-Glo™ luciferase assay system (Promega Corporation) in accordance with the operating manual of the system. The fold increases were calculated by dividing the luminescence value derived from firefly luciferase induced by stimulation with a pyrazine derivative at each concentration by the luminescence value in cells not stimulated with the pyrazine derivative and were used as an index of response strength.
Olfactory receptor OR5K1 (SEQ ID NO: 2) was expressed in HEK293 cells together with an RTP1S variant (SEQ ID NO: 4) by the same procedure as in Example 1, and the dependency of the response on the concentration (0, 3, 10, 30, 100, 300, and 1000 μM) of various pyrazine compounds was investigated. The pyrazine compounds used in this Example were pyrazine and pyrazine derivatives selected from the group consisting of 2-methylpyrazine, 2,3-dimethylpyrazine, 2,5-dimethylpyrazine, 2,3,5-trimethylpyrazine, 2,3,5,6-tetramethylpyrazine and 2-ethylpyrazine.
(Reporter assays use an easily measured gene product as a stand-in for the process of interest.)
For `Cc1cnc(C)c(C)n1` [2,3,5-trimethylpyrazine], the “response of OR5K1, dependency on concentration” value (shortened to “response of OR5K1, dependency”) is on record as “responded in a dose-dependent manner”.

`Cc1cnccn1` [2-methylpyrazine]: the “response of OR5K1, dependency” value is “responded in a dose-dependent manner”.

`Cc1cncc(C)n1` [2,6-dimethylpyrazine]: the “response of OR5K1, dependency” value is reported as “responded in a dose-dependent manner”.

Take `Cc1cnc(C)cn1` [2,5-dimethylpyrazine]: the “response of OR5K1, dependency” value is given as “responded in a dose-dependent manner”.

Regarding `Cc1nccnc1C` [2,3-dimethylpyrazine], the “response of OR5K1, dependency” value is “responded in a dose-dependent manner”.

In the case of `c1cnccn1` [pyrazine], the “response of OR5K1, dependency” value is recorded as “did not respond”.

As to `CCc1cnccn1` [2-ethylpyrazine], the “response of OR5K1, dependency” value is on record as “responded in a dose-dependent manner”.

For `Cc1nc(C)c(C)nc1C` [2,3,5,6-tetramethylpyrazine], the “response of OR5K1, dependency” value is reported as “responded in a dose-dependent manner”.

Still in this assay, the particulars now being: 1 mM; HEK293 cells expressing human olfactory receptors; FIG. 1.
In the case of `Cc1cncc(C)n1` [2,6-dimethylpyrazine], the “response of the 373 types of olfactory receptors to the pyrazine derivative” value is given as “only olfactory receptor OR5K1 responded”.
